ChEMBL document CHEMBL5154722, “Identification of new potent anticancer derivatives through simplifying the core structure and modification on their 14- hydroxyl group from oridonin” (Eur J Med Chem, 2022)
Active and inactive are the calls of the source. The rule behind the calls is not given here.

Columns and labels:
[1] = Antiproliferative activity against human U-87 MG cells assessed as reduction in cell viability incubated for 72 hrs by MTT assay; assay type: functional, cell-based, U-87MG ATCC
K562 [2] = experiment: Induction of cell cycle arrest in human K562 cells assessed as downregulation of cyclin B1 measured after 48 hrs by Western blot analysis; assay type: functional, cell-based; details: dose 25-100 nM, DDE = dose-dependent effect
H22 [3] = experiment: Antitumor activity against mouse H22 cells allografted in ICR mouse assessed as reduction in tumor volume at 20 mg/kg, iv administered once a day for 21 days after 7 days of tumor implantation measured every two days; assay type: functional, organism-based; details: time 21.0 day
K562 [4] = experiment: Induction of cell cycle arrest in human K562 cells assessed as accumulation of cells at G2 phase at 100 nM measured after 48 hrs by propidium iodide staining-based flow cytometric analysis (reference value: 15.30%); assay type: functional
MGC-803 = experiment: Antiproliferative activity against human MGC-803 cells assessed as reduction in cell viability incubated for 72 hrs by MTT assay; assay type: functional, cell-based; details: MGC-803, 72 h
H22 [5] = experiment: Antiproliferative activity against mouse H22 cells assessed as reduction in cell viability incubated for 72 hrs by MTT assay; assay type: functional, cell-based; details: H22, 72 h
K562 [6] = experiment: Induction of apoptosis in human K562 cells assessed as increase in Bax/Bcl-2 ratio at 25 to 100 nM measured after 48 hrs by Western blot analysis; assay type: functional, cell-based; details: dose 25-100 nM
K562 [7] = experiment: Induction of apoptosis in human K562 cells assessed as early apoptotic cells at 50 nM measured after 48 hrs by Annexin V-FITC/PI staining based flow cytometry method (reference value: 1.62%); assay type: functional
K562 [8] = experiment: Induction of apoptosis in human K562 cells assessed as increase in Bax level at 25 to 100 nM measured after 48 hrs by Western blot analysis; assay type: functional, cell-based; details: dose 25-100 nM
[9] = Toxicity in ICR mouse allografted with mouse H22 cells assessed as effect on liver morphology at 10 to 20 mg/kg, iv administered once a day for 21 days after 7 days of tumor implantation by H and E staining method; assay type: organism-based; details: in vivo, 504 h, dose 10-20 mg/kg, time 21 day
K562 [10] = experiment: Induction of apoptosis in human K562 cells assessed as viable cells at 25 nM measured after 48 hrs by Annexin V-FITC/PI staining based flow cytometry method (reference value: 94.41%); assay type: functional; details: read-out: Activity
K562 [11] = experiment: Induction of cell cycle arrest in human K562 cells assessed as accumulation of cells at G2 phase at 50 nM measured after 48 hrs by propidium iodide staining-based flow cytometric analysis (reference value: 15.30%); assay type: functional
[12] = Toxicity in ICR mouse allografted with mouse H22 cells assessed as change in body weight at 10 to 20 mg/kg, iv administered once a day for 21 days after 7 days of tumor implantation measured every two days; assay type: organism-based; details: in vivo, 504 h, dose 10-20 mg/kg, time 21 day
K562 [13] = experiment: Induction of apoptosis in human K562 cells assessed as increase in caspase-9 level measured after 48 hrs by Western blot analysis; assay type: functional, cell-based; details: dose 25-100 nM, DDE = dose-dependent effect
[14] = Toxicity in ICR mouse allografted with mouse H22 cells assessed as effect on spleen morphology at 10 to 20 mg/kg, iv administered once a day for 21 days after 7 days of tumor implantation by H and E staining method; assay type: organism-based; details: in vivo, 504 h, dose 10-20 mg/kg, time 21 day
H22 [15] = experiment: Antitumor activity against mouse H22 cells allografted in ICR mouse assessed as reduction in tumor weight at 20 mg/kg, iv administered once a day for 21 days after 7 days of tumor implantation; assay type: functional; set-up: scale not given: the % may be the effect or the level left; details: time 21 day
K562 [16] = experiment: Induction of apoptosis in human K562 cells assessed as decrease in Bcl-2 level at 25 to 100 nM measured after 48 hrs by Western blot analysis; assay type: functional, cell-based; details: dose 25-100 nM
K562 [17] = experiment: Induction of apoptosis in human K562 cells assessed as viable cells at 50 nM measured after 48 hrs by Annexin V-FITC/PI staining based flow cytometry method (reference value: 94.41%); assay type: functional; details: read-out: Activity
K562 [18] = experiment: Induction of cell cycle arrest in human K562 cells assessed as downregulation of cdc2 measured after 48 hrs by Western blot analysis; assay type: functional, cell-based; details: dose 25-100 nM, DDE = dose-dependent effect
K562 [19] = experiment: Induction of apoptosis in human K562 cells assessed as intracellular ROS generation at 100 uM measured after 48 hrs by DCFH-DA staining based flow cytometry method (reference value: 0.41%); assay type: functional
K562 [20] = experiment: Induction of apoptosis in human K562 cells assessed as necrotic cells at 25 nM measured after 48 hrs by Annexin V-FITC/PI staining based flow cytometry method (reference value: 0.44%); assay type: functional
K562 [21] = experiment: Induction of cell cycle arrest in human K562 cells assessed as accumulation of cells at G1 phase at 50 nM measured after 48 hrs by propidium iodide staining-based flow cytometric analysis (reference value: 47.40%); assay type: functional
K562 [22] = experiment: Induction of apoptosis in human K562 cells assessed as increase in caspase-3 level measured after 48 hrs by Western blot analysis; assay type: functional, cell-based; details: dose 25-100 nM, DDE = dose-dependent effect

SMILES: C=C1C(=O)[C@]23[C@H](OC(=O)/C=C/c4ccncc4)[C@H]1CC[C@H]2[C@]12CCCC(C)(C)[C@H]1[C@H](O)[C@@]3(O)OC2
- IC50 [1]: 840 nM
- Activity (K562 [2]): Dde
- Activity (H22 [3]): Active
- Activity (K562 [4]): 30.83%
- IC50 (MGC-803): 610 nM
- IC50 (H22 [5]): 230 nM
- Activity (K562 [6]): Active
- Activity (K562 [7]): 13.97%
- Activity (K562 [8]): Active
- Activity [9]: Non-Toxic
- viability at 0.025 µM (K562 [10]): 82.5%
- Activity (K562 [11]): 26.72%
- Activity [12]: Non-Toxic
- Activity (K562 [13]): Dde
- Activity [14]: Non-Toxic
- Activity (H22 [15]): 78.92%
- Activity (K562 [16]): Active
- viability at 0.05 µM (K562 [17]): 66.7%
- Activity (K562 [18]): Dde
- Activity (K562 [19]): 63.43%
- Activity (K562 [20]): 0.05%
- Activity (K562 [21]): 36.76%
- Activity (K562 [22]): Dde
